Consider 1 substance from US9777123B2, “Sulfated beta-O4 low molecular weight lignins” (VIRGINIA COMMONWEALTH UNIVERSITY, priority 2013, dated 2017).

The target of the test is T1, SbO4L-thrombin complex (Homo sapiens, UniProt P00734).
T1 construct: purchased Haematologic Technologies, Sigma-Aldrich or Elastin Products Company (not assigned per protease)
Nature of the test: Protamine-mediated reversal of SbO4L inhibition of thrombin. The class given is biochemical. How it is done:
FIG. 8. Protamine-mediated reversal of SbO4L inhibition of thrombin. Recovery of thrombin activity at varying levels of protamine following 50% inhibition by SbO4L was measured through the Spectrozyme TH hydrolysis assay at pH 7.4. Solid line represents non-linear fit of the data by a logistic function similar to equation 1 to obtain the RC50, the concentration of protamine necessary to recover 50% thrombin activity.
A major advantage of heparin therapy is its amenability to protamine-based reversal. It is also one of the reasons why fondaparinux continues to suffer because its iatrogenic bleeding is difficult to reverse rapidly. To test whether SbO4L inhibition of thrombin can be reversed, we studied the recovery of thrombin activity following successive introduction of protamine. […] The protamine-mediated recovery profile essentially mirrors the SbO4L-induced inhibition profile. More importantly, the level of recovery is quantitative at high enough protamine concentrations. Further, the recovery was instantaneous as no extended incubation was necessary to observe reversal. The concentration of protamine necessary to recover 50% thrombin activity, i.e., RC50, could be calculated using an equation similar to the logistic equation 1 used for inhibition studies and found to be ˜0.1 μg/ml, […] for SbO4L inhibition of thrombin.

As for protamine, the “RC50 relative to IC50 (fold higher)” value was determined as 5 fold. In addition, the “RC50, concentration of protamine necessary to recover 50% thrombin activity” value (after 50% inhibition by SbO4L, pH 7.4, 37° C.) is ~0.1 µg/mL. The thrombin activity restored (chromogenic test systems) was 100%. Further, the “effect of protamine alone on thrombin activity” value (controls without SbO4L) was “did not affect the activity of thrombin”.
